A word on the IC50: it is the concentration needed to halve the response being measured.

Data on 17 molecules can be found in patent US8962244B2, “Compounds for modulating RNA binding proteins and uses therefor” (University of Massachusetts, priority 2009, dated 2015).

“And” between values parts separate entries of the source, which are not always exact repeats. Equal values may be shown once.

The target in assay [1] is T1, MEX-5 (Caenorhabditis elegans, UniProt Q9XUB2).
T1 construct: The fragment of mex-5 containing the TZF domain (amino acids 236-350) was amplified; made in house; host or cells: Escherichia coli JM109
T1 sequence (Q9XUB2 236-350): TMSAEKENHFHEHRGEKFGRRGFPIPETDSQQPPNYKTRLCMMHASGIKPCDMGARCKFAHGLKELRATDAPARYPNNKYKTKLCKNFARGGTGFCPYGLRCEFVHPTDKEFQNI
The assay is described as follows: Fluorescence polarization screening of MEX-5 binding to fluorescein-labeled TCR2 RNA. To be noted: for remaining activity at 192 µM: 192 μM test compound, score = polarization relative to no-drug and no-protein controls, 0.25 = 75% inhibition, lowest score = greatest inhibition, read-out: MEX-5 score; for IC50: further screening as described above (fluorescence polarization), dose response. Summed up: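 Fluorescence polarization of 2 nM 3′-fluorescein-labelled TCR2 RNA bound by 120 nM MBP-MEX-5 TZF domain (aa 236–350), at sub-saturating binding. Test compounds at 192 μM in 50 mM Tris-HCl pH 8.0, 100 mM NaCl, 0.01% IGEPAL, 0.01 mg/mL yeast tRNA, 100 μM Zn(OAc)2; no-protein and no-compound controls.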
For orientation: Fluorescence polarisation rises when a labelled molecule tumbles more slowly, as on binding a larger partner.

Assay [2] deals with T2, POS-1 (Caenorhabditis elegans, UniProt G5EF15).
T2 construct: 6-his tag (N); made in house; host or cells: E. coli BL21 (DE3) Gold
T2 sequence (G5EF15 80-180): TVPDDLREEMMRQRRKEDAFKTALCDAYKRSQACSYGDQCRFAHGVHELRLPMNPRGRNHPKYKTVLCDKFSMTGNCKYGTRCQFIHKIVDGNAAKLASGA
The assay can be described thus: Fluorescence polarization screening of POS-1 binding to fluorescein-labeled BMF018 RNA. To be noted: for IC50: further screening as described above (fluorescence polarization), dose response; for remaining activity at 192 µM: 192 μM test compound, score = polarization relative to no-drug and no-protein controls, 0.25 = 75% inhibition, lowest score = greatest inhibition, read-out: POS-1 score.

The target in assay [3] is T2, POS-1. The assay can be described thus: Dose response gel shift assay, POS-1 with MEX-3 UTR fragment RNA. Type of assay: binding. To be noted: 120 nM POS-1, 2-3 nM fluorescein labeled MEX-3 UTR fragment RNA. The method, then:
(§1) A further dose response assay was performed on select compounds of the invention as described below. A sub-saturating concentration of MEX-5 or POS-1 (120 nM) was equilibrated with limiting fluorescein labeled RNA (2-3 nM, TCR2 RNA or MEX-3 UTR fragment RNA respectively) in the presence of varying concentrations of compound. Following equilibration, the reactions were loaded onto a 5% slab polyacrylamide gel and subjected to electrophoresis for about 1 hour to separate protein-RNA complex from free RNA. The gel was scanned on a FUJI FLA-5000 imager, and the fraction of bound RNA determined by dividing the intensity of the bound RNA by the intensity of the bound RNA plus the free RNA. The […] was plotted as a function of compound concentration and fit to a sigmoidal dose response function in order to determine the IC50, the concentration that gives half maximal inhibition.
In general terms: A gel shift assay detects complexes by their altered migration in electrophoresis.

In assay [4] the target is T1, MEX-5. The assay is described as follows: Dose response gel shift assay, MEX-5 with TCR2 RNA. In kind it is binding. To be noted: 120 nM MEX-5, 2-3 nM fluorescein labeled TCR2 RNA. The method, then:
as §1

In assay [5] the test system is Caenorhabditis elegans N2 strain worms. The assay can be described thus: C. elegans viability/sterility assay (gonad microinjection). Type of assay: in vivo. Here is the method:
Young adult worms with a single row of embryos were selected for microinjection. Each worm was mounted on a dried agarose padded coverslip in halocarbon oil. Varying concentrations of compound, or a DMSO control, were microinjected into each gonad arm of the worm using an inverted microscope with DIC optics. Injected worms were then allowed to recover for 2-3 hours at 15° C. Approximately 10-40 worms were injected per compound tested. Individual worms that survived microinjection were singled out onto new NGM agar plates and allowed to recover overnight at 15° C. The plates were moved to room temperature the next morning. At the end of the day, the adult worm was transferred to a new plate. The embryos laid on each plate were monitored for hatching and inspected for unusual phenotypes. Nematode fertility was estimated by counting the total number of progeny on both plates. Viability was estimated by monitoring the extent of hatching.

Assay [6] concerns MEX-3. The assay is described as follows: Fluorescence polarization screening of MEX-3 binding to fluorescein-labeled SEQ 14 RNA. To be noted: 192 μM test compound; 80 nM MBP-MEX-3, no zinc acetate; lowest score = greatest inhibition.
The mark [7] stands for this setting: count per individual injected worm (Worm No. 1-6), Day 2.

`Sc1nnc(COc2cccc3ccccc23)n1-c1ccccc1` [BO]: the remaining activity at 192 µM in assay [1] is 19%. Further, the IC50 in assay [1] came to 75 µM; in assay [2], 16 µM; in assay [3] it was 33 µM; in assay [4], 120 µM.
For `CCS(=O)(=O)Nc1ccccc1NS(=O)(=O)CC` [BR], in that order: 19.9%, 39 µM, 820 µM, 150 µM and 78 µM.
As to `COc1ccc(S(=O)(=O)Nc2ccccc2NS(=O)(=O)c2ccc(OC)cc2)cc1` [E], the “Day 1 Hatchlings” value in assay [5] (count per individual injected worm (Worm No. 1-6), Day 1) is 11 and 34 and 2 and 6 and 4 and 67. The “Day 2 Embryos” value in assay [5] (setting [7]) was found to be 0. Also, the “Day 2 Hatchlings” value in assay [5] (setting [7]) came to 0. In addition, in assay [5] (count per individual injected worm (Worm No. 1-6), unhatched embryos on plate, Day 1), the “Day 1 Embryos” value is 1 and 0 (4×) and 2. Besides, in assay [5] (microinjection into each gonad arm, compared with DMSO controls), the “Effect on worm fertility” value is “may sterilize worms at a stage prior to fertilization”. In addition, the remaining activity at 192 µM in assay [1] was -1.07%; in assay [2], -1.62%. The IC50 in assay [1] came to 1.5 µM; in assay [2], 0.32 µM; in assay [3] it was 0.17 µM; in assay [4], 2 µM.
`COc1nnc(-c2ccc(C)c(S(=O)(=O)NCC3CCCO3)c2)c2ccccc12` (centres unmarked) [DD]: in assay [2], the remaining activity at 192 µM is 7.5%. Besides, the figures for the IC50 in assay [2] and in assay [3] were 300 µM and 260 µM, respectively.
In turn, `Cc1ccc(C(CC(=O)N2CCCC2)c2ccco2)cc1` (centres unmarked) [FA] came in with an MEX-3 score in assay [6] of 0.2093.
In turn, `CCOc1ccc(NS(=O)(=O)c2ccc(C)c(C(N)=O)c2)cc1` [EY] returned an MEX-3 score in assay [6] of 0.08965.
`O=C(O)c1ccc(NC(=S)NC(=O)c2ccc(I)cc2)cc1` [AE]: the values for the remaining activity at 192 µM in assay [1] and in assay [2] were 8.11% and 3.61%, respectively. This molecule also returned an MEX-3 score in assay [6] of 0.1624.
The molecule `COc1ccc(CCNC(=O)c2ccc(C(=O)NCCc3ccc(OC)c(OC)c3)nc2)cc1OC` [EX] came in with an MEX-3 score in assay [6] of 0.0674.
For `COc1ccc(Cl)cc1C(=O)Nc1ccc(S(=O)(=O)Nc2nccs2)cc1` [BK], in assay [1], the remaining activity at 192 µM is 18.4% and the IC50 came out at 540 µM. In addition, the half-inhibitory concentration (IC50) in assay [4] stood at 110 µM.
With `O=C1C2CC=C(Cl)CC2C(=O)N1c1nnc[nH]1` (centres unmarked) [DJ], the IC50 in assay [1] is 3.5 µM; in assay [4], 3.8 µM. The remaining activity at 192 µM in assay [2] was determined as 13.8%.
Turning to `O=C(CSc1nc2ccccc2s1)Nc1ccc(S(=O)(=O)Nc2nccs2)cc1` [DG], the IC50 in assay [1] worked out at 160 µM; in assay [4], 170 µM. For the same molecule, the remaining activity at 192 µM in assay [2] is 10.9%.
For the molecule `CC(=O)Oc1ccccc1-c1nc2s/c(=C3\C(=O)N(CC(N)=O)c4ccccc43)c(=O)n2n1` [C], the remaining activity at 192 µM in assay [1] is -2.09%; in assay [2], -2.48%. Also, the IC50 in assay [1] was 33 µM; in assay [2], 7 µM; in assay [3], 5.1 µM; in assay [4], 9.5 µM.
In the case of `CCn1c(-c2cc(Br)ccc2O)n[nH]c1=S` [AU], the figures for the remaining activity at 192 µM in assay [1] and in assay [2] were 13.4% and 24.8%, respectively.
For `O=[N+]([O-])c1ccc(NS(=O)(=O)c2ccccc2)c(NS(=O)(=O)c2ccccc2)c1` [AQ], the remaining activity at 192 µM in assay [1] was determined as 12.4%; in assay [2] it was 11.6%.
`O=[N+]([O-])c1cccc(/C(=N\O)Nc2nnc(-c3cccnc3)s2)c1` [EZ] registered an MEX-3 score in assay [6] of 0.124.
`CCOC(=O)c1sc(NC(=S)NC(=O)c2cc3ccccc3o2)c(C(=O)OCC)c1C` [FB] gave an MEX-3 score in assay [6] of 0.2585.
Turning to `O=C1NN(c2ccccc2)C(=O)/C1=C\c1cccc(OC(=O)c2cccs2)c1` [CA], the remaining activity at 192 µM in assay [1] came to 21.6%; in assay [2] it was 23%.
